Results taken from paper PMC6148246, “HS-1371, a novel kinase inhibitor of RIP3-mediated necroptosis” (Experimental & Molecular Medicine, 2018).

Assays:
RIP3 [1] = target: T1, RIP3 (Homo sapiens, UniProt Q9Y572); assay: Basal S227 auto-phosphorylation of RIP3 in HT-29 cells (immunoblot); assay type: cell-based; parameters: RIP3-expressing HT-29 cells; endogenous in cells; host or cells: HT-29; conditions: 10 μM, 9 h
Experimental: (§1) Cells were rinsed in cold phosphate-buffered saline (PBS) and lysed in M2 buffer containing 20 mM Tris at pH 7, 0.5% NP-40, 250 mM NaCl, 3 mM EDTA, 3 mM EGTA, 2 mM DTT, 0.5 mM PMSF, 20 mM β-glycerol phosphate, 1 mM sodium vanadate, and 1 μg/mL leupeptin. The cell extracts were subjected to western blot analysis. For immunoprecipitation, lysates were mixed and precipitated with antibody and protein A-agarose beads overnight or for 4 h at 4 °C. Bound proteins were removed by boiling in SDS and resolved by SDS-PAGE, and immunoblotting was visualized by enhanced chemiluminescence (ECL, Amersham).
RIP3 kinase activity is essential for TNF-induced necroptosis, and human S227 auto-phosphorylation sites of RIP3 are required for the interaction of RIP3 with its substrate MLKL[13],[14], which is indispensable for downstream necroptotic cell death signaling. To test the possible effects of the RIP3 inhibitors on necroptosis, HT-29 cells were treated with the kinase inhibitors, and RIP3 kinase activity was determined by examining its phosphorylation status.
(§2) Fig. 2 Novel inhibitors can block RIP3 S227 phosphorylation. a Western blotting showing various kinase inhibitor effects on RIP3 S227 auto-phosphorylation. HT-29 cells were treated with four tested kinase inhibitors (1308, 1336, 1338, and 1371, 10 μM) for 9 h. As a control, KK5101 (Trk alpha inhibitor) and HS829 (IKK beta inhibitor) were also treated at a concentration of 10 μM for 9 h. Prototypical necroptosis stimuli (TNF + zVAD + either cycloheximide or SMAC mimetic; hereafter referred to as TCZ or TSZ) were applied for 6 h. […] HT-29 cells were treated with 4 tested kinase inhibitors for 24 h, and cell viability was analyzed by MTT assay or phase-contrast microscopy. […] HT-29 cells were pretreated with necrostatin-1 (Nec-1, 40 μM), dabrafenib (DAB, 10 μM) or necrosulfonamide (NSA, 1 μM) for 2 h and then treated with TSZ for 6 h. […] HT-29 cells were pretreated with four tested kinase inhibitors for 2 h and then treated with TSZ for 6 h. Cell lysates were analyzed by immunoblotting. f HT-29 cells were pretreated with Nec-1 (40 μM), DAB (5 μM) or HS-1371 (5 μM) for 2 h and then treated with TSZ for 4 h. Cell lysates were immunoprecipitated with anti-RIP3 antibody. Immunoprecipitates and total lysates were analyzed by Western blotting

RIP3 [2] = target: T1, RIP3; assay: S227 auto-phosphorylation of overexpressed RIP3 in 293T cells (immunoblot); assay type: cell-based; conditions: 293T cells transfected with Flag-hRIP3
Text: TNFα Smac mimetic and the caspase inhibitor zVAD (hereafter referred to as TSZ) is a classical combination that is used to induce RIP3-mediated necroptotic cell death[10],[32]. We first verified that three established pharmacological inhibitors of necroptosis, necrostatin-1 (Nec-1), necrosulfonamide (NSA), and dabrafenib (DAB) could block TNF-induced necroptosis (Fig. 2d). Of these inhibitors, Nec-1 inhibits RIP1 kinase activity[33],[34], DAB inhibits RIP3 kinase activity, and NSA inhibits MLKL functions downstream of RIP3 phosphorylation. […] Next, we tested whether these four inhibitors would inhibit TNF-induced necroptosis signaling by blocking RIP3 kinase activity. […] The effect of HS-1371 on RIP3 kinase activity was compared with another RIP3 inhibitor, GSK’872[16]. […]
(a) Overexpression of RIP3 could induce S227 phosphorylation without stimuli. […] After cells were harvested, cell lysates were analyzed by […]
kinase inhibitor. HT-29 cells were treated with HS -1371 or GSK’872 indicated concentrations for 9 h, and cell lysates were analyzed by immunoblotting.
(c) Cytotoxicity of HS-1371 was compared with GSK’872. HT-29 cells were treated with 2 kinase inhibitors for 24 h and cell viability was analyzed by MTT assay.
(d) Inhibition of MLKL phosphorylation by HS-1371 was compared with other two RIP3 kinases inhibitors, DAB (5 μM) and GSK’872 (5 μM). […] Cell lysates were analyzed by […]

p-MLKL = assay: Phospho-MLKL immunofluorescence in HT-29 cells; assay type: cell-based, human; conditions: HT-29, immunofluorescence
Experimental: HT-29 cells were fixed in 4% paraformaldehyde for 10 min. To stain phospho-MLKL, cells were permeabilized with 0.25% Triton X-100 for 10 min. After incubation in a blocking buffer (10% fetal bovine serum in DPBS) for 30 min, the primary antibody to phospho-MLKL was incubated overnight at 4 °C, and FITC-conjugated secondary antibody (goat anti-rabbit IgG, 1:250, dilution, Invitrogen) was incubated for 1 h at room temperature. A mounting medium containing DAPI (VECTASHIELD, Cat No. 94010, Vector Laboratories) was used for counterstaining. Representative images were taken by confocal microscope.
HT-29 cells were pretreated with four tested inhibitors for 2 h and then treated with TSZ (6 h for immunoblotting, 24 h for cell death assay). Cell lysates were analyzed by immunoblotting, and cell viability was analyzed by MTT assay or phase-contrast microscopy. The results are presented as the means ± SEM. *P < 0.05, **P < 0.01, ***P < 0.001. b Protection of necroptosis by HS-1371 treatment is similar with dabrafenib, which abolished downstream events. HT-29 cells were pretreated with various necroptosis inhibitors and HS-1371 before TSZ treatment. Cell lysates were analyzed by immunoblotting, and cell viability was analyzed by MTT assay (left panel). Cells were stained with phospho-MLKL antibody and analyzed by confocal fluorescence microscopy (middle panel), and cell death was further analyzed by FACS analysis after PI staining (right panel). c HS-1371 protects cells from TNF-induced necroptosis in a dose-dependent manner. HT-29 cells were pretreated with indicated concentrations of HS-1371 and then treated with TSZ (6 h for immunoblotting, 24 h for cell death assay). Cell lysates were analyzed by immunoblotting, and cell viability was analyzed by MTT assay or phase-contrast microscopy. The results are presented as means ± SEM. *P < 0.05, **P < 0.01, ***P < 0.001 TEXT PRINTED IN THE PICTURE: (b) TSZ: 20.7 | (b) TSZ + Nec-1: 5.8 | (b) TSZ + DAB: 5.5 | (b) TSZ + 1371: 6.8 DOUBTS OF THE COPYIST ABOUT THIS PICTURE: Panel b, flow cytometry plots: the red gate numbers are printed without a measure or unit, so none is given / Panel b: the 'Untreated' control plot prints 7.7; left out because it is not a substance

RIP3 [3] = target: T1, RIP3; assay: TNF (TSZ)-induced RIP3 and MLKL phosphorylation in HT-29 cells (immunoblot); assay type: cell-based; parameters: RIP3-expressing HT-29 cells; endogenous in cells; host or cells: HT-29; conditions: HT-29; Nec-1 40 μM, DAB 10 μM, NSA 1 μM pretreated 2 h, TSZ 6 h
Experimental: as §1, §2
TNFα Smac mimetic and the caspase inhibitor zVAD (hereafter referred to as TSZ) is a classical combination that is used to induce RIP3-mediated necroptotic cell death[10],[32]. We first verified that three established pharmacological inhibitors of necroptosis, necrostatin-1 (Nec-1), necrosulfonamide (NSA), and dabrafenib (DAB) could block TNF-induced necroptosis (Fig. 2d). Of these inhibitors, Nec-1 inhibits RIP1 kinase activity[33],[34], DAB inhibits RIP3 kinase activity, and NSA inhibits MLKL functions downstream of RIP3 phosphorylation. […] Next, we tested whether these four inhibitors would inhibit TNF-induced necroptosis signaling by blocking RIP3 kinase activity. […] The effect of HS-1371 on RIP3 kinase activity was compared with another RIP3 inhibitor, GSK’872[16].

T1 sequence (Q9Y572 whole entry): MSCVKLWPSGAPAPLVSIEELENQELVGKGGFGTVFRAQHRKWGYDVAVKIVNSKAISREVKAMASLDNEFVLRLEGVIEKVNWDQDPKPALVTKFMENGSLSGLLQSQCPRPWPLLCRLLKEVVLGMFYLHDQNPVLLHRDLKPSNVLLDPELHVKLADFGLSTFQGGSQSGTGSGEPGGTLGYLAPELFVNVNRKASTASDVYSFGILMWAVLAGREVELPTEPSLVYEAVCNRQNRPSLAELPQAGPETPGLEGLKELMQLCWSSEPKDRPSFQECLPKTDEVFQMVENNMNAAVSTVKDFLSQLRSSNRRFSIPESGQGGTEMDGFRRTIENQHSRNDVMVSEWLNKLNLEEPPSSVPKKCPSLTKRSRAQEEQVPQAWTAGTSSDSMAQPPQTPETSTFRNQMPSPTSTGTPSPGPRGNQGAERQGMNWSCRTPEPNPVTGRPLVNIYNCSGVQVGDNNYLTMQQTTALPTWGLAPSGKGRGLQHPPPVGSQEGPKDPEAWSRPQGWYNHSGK

Compound | effect on S227 auto-phosphorylation of RIP3 at the basal level (RIP3 [1]) | S227 auto-phosphorylation of overexpressed RIP3 (RIP3 [2]) | p-MLKL detection / translocation after TSZ (p-MLKL) | block of TNF-induced necroptosis (RIP3 phosphorylation) (RIP3 [3])
Fc1ccccc1Nc1ccnc2cc(-c3cnn(C4CCNCC4)c3)ccc12 [HS-1308] | inhibitory effect | – | – | –
Fc1ccc(Oc2ccnc3cc(-c4cnn(C5CCNCC5)c4)ccc23)c(F)c1 [HS-1336] | inhibitory effect | – | – | –
Fc1cccc(Oc2ccnc3cc(-c4cnn(C5CCNCC5)c4)ccc23)c1 [HS-1338] | inhibitory effect | – | – | –
CC(C)(C)c1nc(-c2cccc(NS(=O)(=O)c3c(F)cccc3F)c2F)c(-c2ccnc(N)n2)s1 [dabrafenib] | – | inhibited | no detection of p-MLKL | could block
CN1C(=O)C(Cc2c[nH]c3ccccc23)NC1=S (stereo not shown) [necrostatin-1, reference compound] | – | – | no detection of p-MLKL | could block
COc1nccnc1NS(=O)(=O)c1ccc(NC(=O)/C=C/c2ccc([N+](=O)[O-])s2)cc1 [necrosulfonamide, reference compound] | – | – | could not translocate into the plasma membrane | could block
